Assay results published in article PMC10682194, “Structural insights into ligand recognition and selectivity of the human hydroxycarboxylic acid receptor HCAR2” (Cell Discovery, 2023).
Like-named read-outs stand apart in the source and are kept apart here.

Columns and labels:
HCAR2 [1] = system: HCAR2; parameters: method as in PMID 19349687; details: HCAR2 agonist; cited from earlier work
HCAR2 [2] = details: cited from earlier work
HCAR3 = HCAR3 (Homo sapiens, UniProt P49019); details: HCAR2 natural ligands on HCAR3; cited from earlier work
HCAR3, sequence (P49019 whole entry): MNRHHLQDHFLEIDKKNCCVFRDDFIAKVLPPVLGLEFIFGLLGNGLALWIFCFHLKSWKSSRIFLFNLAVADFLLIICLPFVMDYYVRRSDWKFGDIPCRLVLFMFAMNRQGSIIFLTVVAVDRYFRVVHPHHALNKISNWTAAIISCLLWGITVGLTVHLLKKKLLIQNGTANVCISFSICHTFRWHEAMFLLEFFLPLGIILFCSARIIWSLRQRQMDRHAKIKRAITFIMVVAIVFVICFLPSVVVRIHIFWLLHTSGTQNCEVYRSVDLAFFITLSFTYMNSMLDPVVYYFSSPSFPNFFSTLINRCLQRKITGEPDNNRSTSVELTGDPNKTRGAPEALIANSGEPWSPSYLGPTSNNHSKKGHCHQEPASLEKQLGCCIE

[3] = system: HCAR3 mutants at positions 86, 91, 103, 107, 176, and 178; test: Gi/o-cAMP assay, reverse mutations in HCAR3; type: cell-based, human; details: reverse mutations of the six residues in HCAR3
Method: (§1) The Gi/o-cAMP assay was performed as follows. […] Data were analyzed with GraphPad Prism 9.0. The experiments were performed in triplicate.

wild-type HCAR2 = target: T1, wild-type HCAR2 (Homo sapiens, UniProt Q8TDS4); test: SPR binding affinity, wild-type receptor
T1 construct: expressed in transfected cells; host or cells: HEK293 cells (ATCC CRL-1573)
T1 sequence (Q8TDS4 whole entry): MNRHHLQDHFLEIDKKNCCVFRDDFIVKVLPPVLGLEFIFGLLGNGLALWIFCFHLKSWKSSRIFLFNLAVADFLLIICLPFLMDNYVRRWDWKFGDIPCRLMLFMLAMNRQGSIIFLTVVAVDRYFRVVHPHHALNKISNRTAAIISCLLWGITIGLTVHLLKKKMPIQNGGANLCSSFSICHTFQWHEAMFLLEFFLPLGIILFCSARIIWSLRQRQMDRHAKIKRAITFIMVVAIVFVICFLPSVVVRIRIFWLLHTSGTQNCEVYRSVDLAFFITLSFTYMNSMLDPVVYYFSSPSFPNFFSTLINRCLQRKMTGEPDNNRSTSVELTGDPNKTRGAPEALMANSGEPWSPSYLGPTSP
Method: Varying concentrations of agonist diluted in running buffer were injected as analytes for 100 s, as the period of association. Subsequently, the running buffer was alternatively perfused over the chip to allow the bound agonist to undergo a 50 s period of disassociation. Sensorgrams were recorded in real-time and analyzed in the Biacore X100 system for the calculation of binding affinity (KD).

[4] = system: HCAR2 mutants at positions 86, 91, 103, 107, 176, and 178; test: Gi/o-cAMP assay, HCAR2 residues mutated to the allelic residues in HCAR3; type: cell-based, human; details: six HCAR2 residues mutated to HCAR3 residues
Method: as §1

[5] = rat, compared to niacin; cited from earlier work
[6] = dog, compared to niacin; cited from earlier work

SMILES: C1Cc2[nH]nc(-c3nn[nH]n3)c2C1 [MK-0354]
- β-arrestin activation (HCAR2 [1]): weak

SMILES: CC(O)CC(=O)O (stereo not drawn) [β-OHB, β-hydroxybutyrate]
- potency for HCAR2 relative to butyrate (HCAR2 [2]; endogenous ligands): higher potency
- activity toward HCAR3 (HCAR3): no activity

SMILES: CCCC(=O)O [butyrate]
- activity toward HCAR3 (HCAR3): no activity

SMILES: NC(=O)c1cccnc1 [nicotinamide]
- activity toward HCAR2 (HCAR2 [2]; carboxyl group of niacin replaced with an amide group): no longer active

SMILES: CCCCCC(O)CC(=O)O (stereo not drawn) [3-hydroxyoctanoic acid]
- activation of HCAR2 (HCAR2 [2]; natural ligand of HCAR3 tested on HCAR2): not activated

SMILES: Cc1cnc(C(=O)O)c[n+]1[O-] [acipimox]
- agonistic activity compared to wild-type HCAR3 [3]: increased
- EC50 (HCAR2 [2]; agonist of HCAR2): 2600 to 6000 nM
- Kd (wild-type HCAR2): 429 nM
- effect of mutations on agonist activity in HCAR2 [4]: markedly reduced

SMILES: CC(C)(Cc1nc(-c2ccc(O)cn2)no1)C(=O)NC1=C(C(=O)O)CCCC1 [MK-6892]
- flushing effect [5]: significantly relieved
- flushing effect [6]: significantly relieved
